Measurements reported in ChEMBL document CHEMBL4665668, “Design and development of molecular hybrids of 2-pyridylpiperazine and 5-phenyl-1,3,4-oxadiazoles as potential multifunctional agents to treat Alzheimer's disease” (Eur J Med Chem, 2019).
Activity calls are given as the source filed them. The calls are words filed in the database; no cut-off is given here.

How the values were obtained:
[1] = target: Amyloid-beta precursor protein (Homo sapiens) (UniProt P05067); settings: dose microM 5-20, time 48.0 hrs
Sequence of Amyloid-beta precursor protein (Homo sapiens) (P05067 whole entry): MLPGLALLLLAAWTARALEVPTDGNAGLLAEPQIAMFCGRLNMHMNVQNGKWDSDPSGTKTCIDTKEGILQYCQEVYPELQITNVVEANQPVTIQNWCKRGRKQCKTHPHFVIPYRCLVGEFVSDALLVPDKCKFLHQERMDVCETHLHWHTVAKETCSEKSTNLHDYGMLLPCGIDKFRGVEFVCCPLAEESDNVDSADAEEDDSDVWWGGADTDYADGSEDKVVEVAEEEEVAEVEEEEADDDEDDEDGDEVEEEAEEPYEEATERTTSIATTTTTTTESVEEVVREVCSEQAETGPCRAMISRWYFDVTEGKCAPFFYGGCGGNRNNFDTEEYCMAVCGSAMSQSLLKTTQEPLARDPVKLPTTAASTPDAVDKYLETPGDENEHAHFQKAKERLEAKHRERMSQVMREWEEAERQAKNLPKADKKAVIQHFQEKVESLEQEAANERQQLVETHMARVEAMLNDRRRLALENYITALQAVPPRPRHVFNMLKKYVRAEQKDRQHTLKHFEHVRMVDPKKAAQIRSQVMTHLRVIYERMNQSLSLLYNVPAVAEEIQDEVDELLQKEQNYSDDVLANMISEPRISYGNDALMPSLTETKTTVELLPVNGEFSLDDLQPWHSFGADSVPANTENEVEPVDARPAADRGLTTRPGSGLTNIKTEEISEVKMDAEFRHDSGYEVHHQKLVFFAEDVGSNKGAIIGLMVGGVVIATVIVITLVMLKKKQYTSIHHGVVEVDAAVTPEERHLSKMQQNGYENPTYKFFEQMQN

Rattus norvegicus [2] = species on record: Rattus norvegicus; settings: Wistar, dose 5.0 mg/kg, time 7.0 day
Rattus norvegicus [3] = assay: Improvement in learning and spatial memory in icv infused amyloid beta (1 to 42)-induced rat model of Alzheimer's disease assessed as increase in number of platform crossing at 5 mg/kg, po administered daily for 7 days starting from 7 days post surgery and measured after 6 days by Morris water maze test; format: functional, organism-based; settings: time 13.0 day
Rattus norvegicus [4] = assay: Improvement in learning and spatial memory in icv infused amyloid beta (1 to 42)-induced rat model of Alzheimer's disease assessed as reduction in escape latency at 5 mg/kg, po administered daily for 7 days starting from 7 days post surgery and measured daily for 5 days by Morris water maze test; format: functional, organism-based; settings: time 12.0 day
Beta-secretase 1 = Beta-secretase 1 (Homo sapiens, UniProt P56817); assay: Inhibition of human BACE-1 using MOCA-SEV-NL-DAEFR-DNP-RR as substrate preincubated with substrate followed by enzyme addition by FRET assay
Sequence of Beta-secretase 1 (P56817 whole entry): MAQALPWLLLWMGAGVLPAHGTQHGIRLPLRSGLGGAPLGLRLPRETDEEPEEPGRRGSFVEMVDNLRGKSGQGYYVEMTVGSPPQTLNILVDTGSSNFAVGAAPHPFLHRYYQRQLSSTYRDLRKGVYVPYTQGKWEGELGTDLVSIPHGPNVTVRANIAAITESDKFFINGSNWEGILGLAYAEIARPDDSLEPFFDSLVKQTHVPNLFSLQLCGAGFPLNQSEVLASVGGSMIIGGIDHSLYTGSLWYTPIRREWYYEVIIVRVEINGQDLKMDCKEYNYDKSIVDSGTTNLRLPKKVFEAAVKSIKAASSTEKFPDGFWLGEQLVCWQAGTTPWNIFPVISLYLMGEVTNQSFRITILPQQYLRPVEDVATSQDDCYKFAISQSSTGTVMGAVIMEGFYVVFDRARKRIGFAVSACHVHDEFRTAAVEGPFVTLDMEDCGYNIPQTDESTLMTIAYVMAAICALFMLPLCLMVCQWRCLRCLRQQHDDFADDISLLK

Acetylcholinesterase = Acetylcholinesterase (Homo sapiens, UniProt P22303); assay: Inhibition of human erythrocytes AChE using acetylthiocholine iodide as substrate preincubated for 10 mins followed by substrate addition by Ellman's method; format: tissue-based, Erythrocyte
Sequence of Acetylcholinesterase (P22303 whole entry): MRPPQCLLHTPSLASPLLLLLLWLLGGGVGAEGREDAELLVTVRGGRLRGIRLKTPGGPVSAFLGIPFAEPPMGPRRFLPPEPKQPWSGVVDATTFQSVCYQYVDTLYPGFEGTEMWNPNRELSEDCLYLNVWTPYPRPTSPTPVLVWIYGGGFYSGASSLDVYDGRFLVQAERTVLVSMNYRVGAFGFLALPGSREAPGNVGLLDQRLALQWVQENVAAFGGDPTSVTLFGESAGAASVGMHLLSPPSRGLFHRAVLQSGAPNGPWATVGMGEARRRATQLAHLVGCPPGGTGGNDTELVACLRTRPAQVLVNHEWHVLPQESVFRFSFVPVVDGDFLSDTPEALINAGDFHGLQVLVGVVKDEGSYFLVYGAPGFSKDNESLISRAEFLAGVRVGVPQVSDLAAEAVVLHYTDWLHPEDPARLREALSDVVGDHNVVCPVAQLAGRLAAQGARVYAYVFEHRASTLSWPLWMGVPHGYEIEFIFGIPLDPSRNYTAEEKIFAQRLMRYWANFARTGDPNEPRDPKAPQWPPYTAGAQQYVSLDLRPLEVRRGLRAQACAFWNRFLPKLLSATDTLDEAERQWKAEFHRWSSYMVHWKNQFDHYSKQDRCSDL

Cholinesterase = Cholinesterase (Homo sapiens, UniProt P06276); assay: Inhibition of human serum BChE using butyrylthiocholine iodide as substrate preincubated for 10 mins followed by substrate addition by Ellman's method; format: cell-free
Sequence of Cholinesterase (P06276 whole entry): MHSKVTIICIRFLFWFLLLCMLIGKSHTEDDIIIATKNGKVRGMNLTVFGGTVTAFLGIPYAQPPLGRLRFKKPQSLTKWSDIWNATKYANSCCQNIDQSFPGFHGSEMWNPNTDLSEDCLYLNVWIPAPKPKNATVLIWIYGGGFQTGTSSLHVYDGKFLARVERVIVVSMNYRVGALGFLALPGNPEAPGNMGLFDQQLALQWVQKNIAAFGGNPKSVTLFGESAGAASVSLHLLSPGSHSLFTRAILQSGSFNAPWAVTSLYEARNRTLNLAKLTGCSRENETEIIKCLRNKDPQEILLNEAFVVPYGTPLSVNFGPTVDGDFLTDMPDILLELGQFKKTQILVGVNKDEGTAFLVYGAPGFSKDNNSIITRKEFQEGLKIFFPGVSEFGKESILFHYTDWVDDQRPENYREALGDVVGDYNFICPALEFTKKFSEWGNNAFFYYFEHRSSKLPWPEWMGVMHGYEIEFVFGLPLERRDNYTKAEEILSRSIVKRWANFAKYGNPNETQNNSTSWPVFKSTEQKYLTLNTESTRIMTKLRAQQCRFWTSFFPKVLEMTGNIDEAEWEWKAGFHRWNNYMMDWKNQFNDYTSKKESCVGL

[5] = Permeability of the compound in PBS/EtOH buffer (7:3) at 25 ug/ml after 18 hrs by PAMPA-BBB assay

Row | SMILES | Flu intensity [1] | inhibition (Rattus norvegicus [2]) | Activity (Rattus norvegicus [3]) | Activity (Rattus norvegicus [4]) | IC50 (Beta-secretase 1) | IC50 (Acetylcholinesterase) | IC50 (Cholinesterase) | Papp at 18 h, 25 ug/ml [5]
1 | COc1cc2c(cc1OC)C(=O)C(CC1CCN(Cc3ccccc3)CC1)C2 (configuration not stated) | 0.31 | Active | Active | Active | – | – | – | –
2 | O=C(N/N=C/c1ccc(C(F)(F)F)cc1)N1CCN(c2ccccn2)CC1 | – | – | – | – | 1.82 µM | 1.32 µM | 4.04 µM | –
3 | Cc1ccc(/C=N/NC(=O)N2CCN(c3ccccn3)CC2)cc1 | – | – | – | – | 3.92 µM | 4.78 µM | > 10 µM | –
4 | O=C(N/N=C/c1ccc(O)cc1)N1CCN(c2ccccn2)CC1 | – | – | – | – | 4.68 µM | 4.81 µM | 6.15 µM | –
5 | COc1cccc(-c2nnc(N3CCN(c4ccccn4)CC3)o2)c1OC | – | – | – | – | 2.16 µM | 1.19 µM | 5.22 µM | –
6 | COc1cc(/C=N/NC(=O)N2CCN(c3ccccn3)CC2)cc(OC)c1OC | – | – | – | – | 4.64 µM | 5.69 µM | 4.68 µM | –
7 | Clc1ccc(-c2nnc(N3CCN(c4ccccn4)CC3)o2)cc1 | – | – | – | – | 1.32 µM | 0.102 µM | 1.82 µM | –
8 | O=C(N/N=C/c1ccccc1)N1CCN(c2ccccn2)CC1 | – | – | – | – | 7.69 µM | 3.62 µM | 4.22 µM | –
9 | O=C(N/N=C/c1ccc(F)cc1)N1CCN(c2ccccn2)CC1 | – | – | – | – | 1.24 µM | 1.87 µM | 3.99 µM | –
10 | O=C(N/N=C/c1ccccc1O)N1CCN(c2ccccn2)CC1 | – | – | – | – | 5.88 µM | > 10 µM | > 10 µM | –
11 | O=[N+]([O-])c1ccc(-c2nnc(N3CCN(c4ccccn4)CC3)o2)cc1 | – | – | – | – | 1.34 µM | 0.219 µM | 2.86 µM | –
12 | Cc1ccc(-c2nnc(N3CCN(c4ccccn4)CC3)o2)cc1 | – | – | – | – | 2.48 µM | 1.02 µM | > 10 µM | –
13 | FC(F)(F)c1ccc(-c2nnc(N3CCN(c4ccccn4)CC3)o2)cc1 | – | – | – | – | 0.465 µM | 0.182 µM | 2.12 µM | 6.3 ×10⁻⁶ cm/s
14 | Cc1cccc(/C=N/NC(=O)N2CCN(c3ccccn3)CC2)c1 | – | – | – | – | 4.37 µM | > 10 µM | > 10 µM | –
15 | O=C(N/N=C/c1ccc(Cl)cc1)N1CCN(c2ccccn2)CC1 | – | – | – | – | 2.96 µM | 3.42 µM | 4.82 µM | –
